The AC50 is the concentration giving half of the maximal activity seen. Low readings indicate greater potency, high ones weaker potency.

Test [1] has as its target Muscarinic acetylcholine receptor M3 (Homo sapiens, UniProt P20309).
Test [2] has as its target cGMP-inhibited 3',5'-cyclic phosphodiesterase 3A (Homo sapiens, UniProt Q14432). It counts as functional.
Another test addresses Vasopressin V1a receptor (Homo sapiens, UniProt P37288).
Test [3] addresses Beta-1 adrenergic receptor (Homo sapiens, UniProt P08588). It counts as functional.
The target in another test is T1, Estrogen receptor (Homo sapiens, UniProt P03372).
T1 sequence (P03372 whole entry): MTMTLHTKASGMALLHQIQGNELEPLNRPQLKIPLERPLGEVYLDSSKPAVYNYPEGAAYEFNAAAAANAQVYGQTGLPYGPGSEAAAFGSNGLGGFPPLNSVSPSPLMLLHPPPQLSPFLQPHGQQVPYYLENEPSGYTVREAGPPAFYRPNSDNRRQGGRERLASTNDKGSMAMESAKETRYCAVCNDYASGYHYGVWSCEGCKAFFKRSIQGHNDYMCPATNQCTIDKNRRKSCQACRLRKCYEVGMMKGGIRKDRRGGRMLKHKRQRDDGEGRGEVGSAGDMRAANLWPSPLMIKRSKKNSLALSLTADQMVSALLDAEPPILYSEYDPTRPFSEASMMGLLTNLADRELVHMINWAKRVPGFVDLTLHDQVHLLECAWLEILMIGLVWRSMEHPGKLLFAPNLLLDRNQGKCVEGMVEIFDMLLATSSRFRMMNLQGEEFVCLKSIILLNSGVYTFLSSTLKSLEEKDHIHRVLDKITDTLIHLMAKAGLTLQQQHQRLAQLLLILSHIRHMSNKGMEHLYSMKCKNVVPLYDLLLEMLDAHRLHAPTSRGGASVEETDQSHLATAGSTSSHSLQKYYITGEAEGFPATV

In test [4] the target is Neuronal acetylcholine receptor subunit alpha-4 (Homo sapiens, UniProt P43681).
Chain of Neuronal acetylcholine receptor subunit alpha-4 (P43681 whole entry): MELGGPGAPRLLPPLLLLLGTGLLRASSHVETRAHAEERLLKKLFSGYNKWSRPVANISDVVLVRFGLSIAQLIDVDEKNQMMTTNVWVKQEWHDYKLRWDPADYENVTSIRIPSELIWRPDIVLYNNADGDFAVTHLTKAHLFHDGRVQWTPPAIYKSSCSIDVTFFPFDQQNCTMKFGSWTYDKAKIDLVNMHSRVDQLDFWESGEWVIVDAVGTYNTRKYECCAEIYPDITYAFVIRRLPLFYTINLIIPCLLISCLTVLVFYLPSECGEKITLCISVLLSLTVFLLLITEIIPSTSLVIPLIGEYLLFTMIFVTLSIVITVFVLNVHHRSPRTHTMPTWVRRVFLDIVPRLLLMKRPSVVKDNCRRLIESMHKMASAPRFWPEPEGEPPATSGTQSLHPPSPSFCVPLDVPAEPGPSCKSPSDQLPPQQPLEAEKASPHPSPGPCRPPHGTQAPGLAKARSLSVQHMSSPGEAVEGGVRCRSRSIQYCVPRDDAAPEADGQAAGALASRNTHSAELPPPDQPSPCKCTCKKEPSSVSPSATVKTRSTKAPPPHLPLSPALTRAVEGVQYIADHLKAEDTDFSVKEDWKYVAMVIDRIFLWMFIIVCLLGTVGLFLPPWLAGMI
The target in test [5] is T2, Alpha-2A adrenergic receptor (Homo sapiens, UniProt P08913).
T2 sequence (P08913 whole entry): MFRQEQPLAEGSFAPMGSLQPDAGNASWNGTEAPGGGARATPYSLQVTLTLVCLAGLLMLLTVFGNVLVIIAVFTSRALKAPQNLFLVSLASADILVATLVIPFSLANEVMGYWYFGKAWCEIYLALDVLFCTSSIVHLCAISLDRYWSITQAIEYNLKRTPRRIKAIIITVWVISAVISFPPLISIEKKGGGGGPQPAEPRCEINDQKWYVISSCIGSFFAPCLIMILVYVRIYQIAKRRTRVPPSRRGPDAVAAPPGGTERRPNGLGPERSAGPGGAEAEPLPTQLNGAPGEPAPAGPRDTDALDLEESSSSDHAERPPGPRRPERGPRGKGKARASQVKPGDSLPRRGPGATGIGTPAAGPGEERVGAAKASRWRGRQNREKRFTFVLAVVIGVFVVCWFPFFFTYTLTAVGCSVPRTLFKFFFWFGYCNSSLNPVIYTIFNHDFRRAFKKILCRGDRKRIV
The class given is functional, cell-based.

For test [6], the target named is T3, 5-hydroxytryptamine receptor 2C (Homo sapiens, UniProt P28335).
T3 sequence (P28335 whole entry): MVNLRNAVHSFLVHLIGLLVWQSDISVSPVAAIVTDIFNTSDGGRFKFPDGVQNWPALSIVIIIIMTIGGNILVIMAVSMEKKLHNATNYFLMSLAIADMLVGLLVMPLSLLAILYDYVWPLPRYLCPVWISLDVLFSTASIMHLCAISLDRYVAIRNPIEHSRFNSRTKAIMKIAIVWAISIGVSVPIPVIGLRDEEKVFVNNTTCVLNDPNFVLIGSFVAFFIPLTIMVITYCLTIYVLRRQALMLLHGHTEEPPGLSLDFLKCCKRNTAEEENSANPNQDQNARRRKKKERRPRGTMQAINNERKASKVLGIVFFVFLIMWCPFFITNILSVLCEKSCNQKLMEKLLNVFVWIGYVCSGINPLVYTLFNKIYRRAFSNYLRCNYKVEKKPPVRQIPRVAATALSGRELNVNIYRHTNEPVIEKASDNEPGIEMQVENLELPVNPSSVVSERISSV

Test [7] has as its target T4, Muscarinic acetylcholine receptor M2 (Homo sapiens, UniProt P08172).
T4 sequence (P08172 whole entry): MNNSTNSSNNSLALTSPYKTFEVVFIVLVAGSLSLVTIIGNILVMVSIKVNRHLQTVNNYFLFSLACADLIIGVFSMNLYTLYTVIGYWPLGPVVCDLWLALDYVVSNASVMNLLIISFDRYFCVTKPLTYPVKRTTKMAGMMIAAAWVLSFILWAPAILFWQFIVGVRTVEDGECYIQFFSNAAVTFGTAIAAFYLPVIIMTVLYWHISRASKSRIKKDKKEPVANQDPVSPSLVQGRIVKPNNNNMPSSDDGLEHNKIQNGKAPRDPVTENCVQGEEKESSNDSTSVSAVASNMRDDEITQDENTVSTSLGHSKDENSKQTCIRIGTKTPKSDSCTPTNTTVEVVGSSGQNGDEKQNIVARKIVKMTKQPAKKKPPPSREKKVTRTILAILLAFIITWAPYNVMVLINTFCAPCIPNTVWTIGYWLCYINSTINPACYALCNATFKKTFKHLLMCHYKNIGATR
The class given is functional, cell-based.

The target of test [8] is T5, Prostaglandin G/H synthase 1 (Rattus norvegicus, UniProt Q63921).
T5 sequence (Q63921 whole entry): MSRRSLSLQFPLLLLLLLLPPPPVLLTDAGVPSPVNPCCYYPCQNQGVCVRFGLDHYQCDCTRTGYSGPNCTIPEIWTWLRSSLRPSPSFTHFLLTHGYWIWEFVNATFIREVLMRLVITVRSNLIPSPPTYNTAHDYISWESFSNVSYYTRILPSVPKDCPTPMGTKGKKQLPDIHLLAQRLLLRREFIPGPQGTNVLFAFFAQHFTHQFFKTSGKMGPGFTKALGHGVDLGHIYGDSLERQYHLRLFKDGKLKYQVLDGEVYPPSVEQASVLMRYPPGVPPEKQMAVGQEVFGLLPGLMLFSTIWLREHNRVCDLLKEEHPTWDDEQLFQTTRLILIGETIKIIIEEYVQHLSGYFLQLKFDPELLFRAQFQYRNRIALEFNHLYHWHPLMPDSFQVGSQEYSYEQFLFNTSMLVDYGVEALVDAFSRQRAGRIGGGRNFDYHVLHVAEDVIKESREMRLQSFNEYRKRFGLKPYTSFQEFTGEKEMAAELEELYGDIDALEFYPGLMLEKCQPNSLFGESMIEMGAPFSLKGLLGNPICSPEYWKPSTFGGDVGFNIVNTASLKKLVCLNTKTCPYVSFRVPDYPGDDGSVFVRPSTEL
The class given is functional.
Further: assay procedure not described here.

Chain of Vasopressin V1a receptor (P37288 whole entry): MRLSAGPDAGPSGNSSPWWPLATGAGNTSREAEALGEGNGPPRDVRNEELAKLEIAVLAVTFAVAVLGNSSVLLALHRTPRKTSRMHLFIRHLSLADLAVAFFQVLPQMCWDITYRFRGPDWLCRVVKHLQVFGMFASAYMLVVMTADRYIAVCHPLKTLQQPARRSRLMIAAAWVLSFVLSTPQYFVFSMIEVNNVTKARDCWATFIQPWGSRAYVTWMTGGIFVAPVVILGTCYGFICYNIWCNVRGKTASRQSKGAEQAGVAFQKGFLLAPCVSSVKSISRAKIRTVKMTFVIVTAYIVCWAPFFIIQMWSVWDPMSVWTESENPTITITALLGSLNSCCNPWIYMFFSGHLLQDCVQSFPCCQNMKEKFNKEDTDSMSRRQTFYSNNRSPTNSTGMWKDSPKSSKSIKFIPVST
Chain of cGMP-inhibited 3',5'-cyclic phosphodiesterase 3A (Q14432 whole entry): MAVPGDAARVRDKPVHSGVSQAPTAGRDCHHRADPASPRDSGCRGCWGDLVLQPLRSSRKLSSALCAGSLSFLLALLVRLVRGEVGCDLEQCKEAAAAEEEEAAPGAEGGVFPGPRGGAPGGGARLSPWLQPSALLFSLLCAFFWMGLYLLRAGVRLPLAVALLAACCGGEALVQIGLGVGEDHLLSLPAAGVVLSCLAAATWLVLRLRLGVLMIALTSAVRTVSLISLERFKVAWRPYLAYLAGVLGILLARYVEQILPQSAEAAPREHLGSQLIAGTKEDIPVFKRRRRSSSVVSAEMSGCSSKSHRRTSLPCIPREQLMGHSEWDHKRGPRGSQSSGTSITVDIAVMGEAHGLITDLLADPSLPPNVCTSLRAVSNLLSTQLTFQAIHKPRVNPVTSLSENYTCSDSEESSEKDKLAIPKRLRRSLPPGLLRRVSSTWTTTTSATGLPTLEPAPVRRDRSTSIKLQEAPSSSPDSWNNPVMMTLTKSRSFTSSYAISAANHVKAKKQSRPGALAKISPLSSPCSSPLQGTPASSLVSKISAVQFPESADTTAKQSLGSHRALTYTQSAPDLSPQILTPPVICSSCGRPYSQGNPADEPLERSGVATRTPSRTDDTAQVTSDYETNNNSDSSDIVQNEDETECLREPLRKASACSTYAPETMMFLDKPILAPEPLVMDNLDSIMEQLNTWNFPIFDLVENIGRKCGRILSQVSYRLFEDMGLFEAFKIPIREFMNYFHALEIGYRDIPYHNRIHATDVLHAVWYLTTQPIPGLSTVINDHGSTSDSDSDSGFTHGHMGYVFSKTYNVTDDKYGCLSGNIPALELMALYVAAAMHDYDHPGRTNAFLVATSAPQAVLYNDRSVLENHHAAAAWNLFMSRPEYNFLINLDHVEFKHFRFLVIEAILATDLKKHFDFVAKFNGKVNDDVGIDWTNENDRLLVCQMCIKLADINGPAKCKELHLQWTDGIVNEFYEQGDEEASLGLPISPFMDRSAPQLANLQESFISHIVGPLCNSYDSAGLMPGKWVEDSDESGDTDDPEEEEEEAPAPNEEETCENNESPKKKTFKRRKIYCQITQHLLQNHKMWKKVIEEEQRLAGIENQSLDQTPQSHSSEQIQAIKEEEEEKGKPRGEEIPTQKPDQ
Chain of Muscarinic acetylcholine receptor M3 (P20309 whole entry): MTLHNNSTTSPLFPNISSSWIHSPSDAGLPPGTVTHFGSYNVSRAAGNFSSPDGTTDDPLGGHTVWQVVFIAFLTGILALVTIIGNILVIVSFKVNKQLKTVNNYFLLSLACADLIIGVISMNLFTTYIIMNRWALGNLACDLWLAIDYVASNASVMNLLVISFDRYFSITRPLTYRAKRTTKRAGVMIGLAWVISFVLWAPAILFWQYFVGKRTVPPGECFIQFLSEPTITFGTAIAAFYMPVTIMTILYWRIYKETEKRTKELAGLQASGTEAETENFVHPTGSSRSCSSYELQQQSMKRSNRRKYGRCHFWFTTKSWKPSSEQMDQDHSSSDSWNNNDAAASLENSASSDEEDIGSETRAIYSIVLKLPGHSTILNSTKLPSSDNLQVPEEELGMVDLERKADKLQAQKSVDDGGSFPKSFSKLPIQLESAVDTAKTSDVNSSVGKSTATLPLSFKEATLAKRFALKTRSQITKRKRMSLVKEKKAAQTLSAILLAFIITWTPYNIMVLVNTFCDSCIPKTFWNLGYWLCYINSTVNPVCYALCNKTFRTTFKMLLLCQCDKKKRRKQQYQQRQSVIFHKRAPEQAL
Chain of Beta-1 adrenergic receptor (P08588 whole entry): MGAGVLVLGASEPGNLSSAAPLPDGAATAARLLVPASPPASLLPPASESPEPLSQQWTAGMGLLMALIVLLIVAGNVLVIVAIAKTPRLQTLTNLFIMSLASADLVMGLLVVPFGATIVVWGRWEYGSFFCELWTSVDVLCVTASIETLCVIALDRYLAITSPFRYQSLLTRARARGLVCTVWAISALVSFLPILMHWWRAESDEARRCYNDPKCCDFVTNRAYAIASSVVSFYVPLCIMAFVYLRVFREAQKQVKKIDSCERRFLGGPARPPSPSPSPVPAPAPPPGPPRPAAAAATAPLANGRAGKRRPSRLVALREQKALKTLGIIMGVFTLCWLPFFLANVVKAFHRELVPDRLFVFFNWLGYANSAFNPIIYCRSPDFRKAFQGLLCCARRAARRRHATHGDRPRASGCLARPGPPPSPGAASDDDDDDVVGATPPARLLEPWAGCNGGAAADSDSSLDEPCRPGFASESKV

As to `C=C1/C(=C\C=C2/CCC[C@]3(C)[C@@H]([C@H](C)/C=C/[C@@H](O)C4CC4)CC[C@@H]23)C[C@@H](O)C[C@@H]1O` [CALCIPOTRIENE], the AC50 in [1] was above 30 µM; in test [2] it was above 30 µM; on Vasopressin V1a receptor it was above 30 µM; in test [3], above 30 µM; on Estrogen receptor, above 10 µM; in test [4], above 30 µM. Also, the concentration at half-maximal activity (AC50) in test [5] was above 30 µM; in test [6] it was above 30 µM; in test [7], above 30 µM; in [8], 2.2 µM.
As to `CCN(CC)C(=O)Nc1ccc(OCC(O)CNC(C)(C)C)c(C(C)=O)c1` (stereo not given) [CELIPROLOL], the AC50 in test [1] was above 30 µM; in test [2], above 30 µM; at Vasopressin V1a receptor, above 30 µM; in [3], 0.076 µM; on Estrogen receptor, above 30 µM; in test [4] it was above 30 µM. Moreover, the AC50 in [5], in test [6], in test [7] and in test [8] was above 30 µM in each case.
For the compound `C=C[C@@]1(C)CC(=O)[C@]2(O)[C@@]3(C)[C@@H](O)CCC(C)(C)[C@@H]3[C@H](O)[C@H](OC(C)=O)[C@@]2(C)O1` [COLFORSIN], the AC50 (in test [1]; in [2]; at Vasopressin V1a receptor; in [3]; on Estrogen receptor; in test [4]) was above 30 µM each time. Besides, the AC50 in test [5] is 4.3 µM; in test [6], above 30 µM; in test [7], 11 µM; in test [8], above 30 µM.
Consider `CC(=O)[C@@]1(O)CC[C@H]2[C@@H]3C=C(Cl)C4=CC(=O)[C@@H]5C[C@@H]5[C@]4(C)[C@H]3CC[C@@]21C` [CYPROTERONE], for which the AC50 was above 30 µM in test [1]; 16 µM in test [2]; above 10 µM on Vasopressin V1a receptor; above 10 µM in [3]; above 30 µM at Estrogen receptor; above 10 µM in [4]. Besides, the AC50 was above 10 µM in [5], above 30 µM in [6], above 10 µM in test [7] and above 10 µM in test [8].
On to `CCCCCC(=O)O[C@]1(C(C)=O)CC[C@H]2[C@@H]3CCC4=CC(=O)CC[C@]4(C)[C@H]3CC[C@@]21C` [HYDROXYPROGESTERONE CAPROATE], for which the AC50 in test [1] was above 30 µM; in [2] it was 30 µM; on Vasopressin V1a receptor, above 30 µM; in test [3], above 30 µM; on Estrogen receptor it was above 30 µM; in [4], above 30 µM. For the same compound, the AC50 in test [5], in test [6], in test [7] and in test [8] was above 30 µM in each case.
As to `COc1cc2c(cc1OC)C(CCc1ccc(Cl)cc1)N(C)CC2` (stereo not given) [METHOPHOLINE], the AC50 (in test [1]; in [2]; on Vasopressin V1a receptor; in test [3]; at Estrogen receptor; in test [4]) was above 30 µM each time. Moreover, the AC50 was above 10 µM in test [5], above 30 µM in test [6], above 10 µM in test [7] and 0.77 µM in test [8].
On to `C#CCOc1ccc(N)cc1C(=O)NCCCC` [PARSALMIDE], for which the AC50 (in test [1]; in [2]; on Vasopressin V1a receptor; in test [3]; at Estrogen receptor; in test [4]) was above 30 µM in each case. Moreover, the AC50 was above 30 µM in test [5], above 30 µM in [6], above 30 µM in test [7] and 2.3 µM in [8].
For `COc1ccc2nc3cc(Cl)ccc3c(Nc3cc(CN4CCCC4)c(O)c(CN4CCCC4)c3)c2n1` [PYRONARIDINE], the AC50 is 25 µM in test [1]; 5.7 µM in [2]; above 30 µM on Vasopressin V1a receptor; above 30 µM in test [3]; above 30 µM at Estrogen receptor; 26 µM in test [4]. Also, the concentration at half-maximal activity (AC50) in [5] was above 30 µM; in [6], above 30 µM; in test [7], 15 µM; in test [8], above 30 µM.
For `CC1=C(C)C(=O)C(C(CCCCCC(=O)O)c2ccccc2)=C(C)C1=O` (stereo not given) [SERATRODAST], the AC50 is above 30 µM in test [1]; 25 µM in test [2]; above 30 µM on Vasopressin V1a receptor; above 30 µM in [3]; above 30 µM on Estrogen receptor; above 30 µM in [4]. In addition, the half-maximal activity concentration (AC50) in test [5] is above 30 µM; in test [6] it was above 30 µM; in test [7], above 30 µM; in test [8] it was 1.14 µM.

The values above are taken from ChEMBL document CHEMBL5291721, “A preclinical secondary pharmacology resource illuminates target-adverse drug reaction associations of marketed drugs” (Nat Commun, 2023).
